# From patent US20060079453A1, “Hla binding peptides and their uses” (priority 2002, published 2006)
# Read-outs that look alike come from different tables or passages of the source. No end group written: not given here.
# Legend:
# HLA-A*2902 = HLA-A*2902 (Homo sapiens, UniProt P04439, A270S/D101N/D185E/E176V/E277Q/E87Q/F33T/G231S/H175R/I121M/I218V/I322F/K168Q/L300P/L318F/M331R/P208A/P217A/Q86L/T323A/T345S/V100A/V358M); assay: MHC molecular binding / Capture assay, IC50: A*2902
# HLA-A*3002 = HLA-A*3002 (Homo sapiens, UniProt P04439, D101N/D140H/D185E/E176R/F33S/G80R/H175R/K168Q/Q94H/R138E/R41S/V100E); assay: biochemical; format: binding
# HLA-DR DRB1*1302 (DR13) = HLA-DR DRB1*1302 (DR13) (Homo sapiens, UniProt P01903+P01911, A100E/A169T/K41T/L162R/M171V/P40S/Q125H/Q178H/Q39Y/Q99D/R42S/S66N/T262R/V115G/W38E/Y61H); assay: biochemical; format: binding; settings: DRBI *1302
# HLA-DR DRB1*0901 (DR9) = HLA-DR DRB1*0901 (DR9) (Homo sapiens, UniProt P01903+P01911, A100R/A103E/D57H/D86V/F55Y/F60I/F76Y/I96F/K127E/L162R/M171V/P40D/Q125H/Q99R/R33Q/R42F/S133A/S66N/T210M/V115G/W38K/Y107V/Y59G/Y89S); assay: biochemical; format: binding; settings: DRB1 *0901
# HLA-DR DRB5*0101 (DR51) = HLA-DR DRB5*0101 (DR51) (Homo sapiens, UniProt P01903+Q30154); assay: biochemical; format: binding; settings: DRB5 *0101
# HLA-DR DRB1*0701 (DR7) = HLA-DR DRB1*0701 (DR7) (Homo sapiens, UniProt P01903+P01911, A100R/A102G/A103Q/D57E/D86V/E43K/F76Y/K127E/L162R/M171V/P40G/Q125H/Q99D/R33Q/R42Y/R54Q/S133A/S66F/T210M/V115G/Y107V/Y59L/Y89S); assay: biochemical; format: binding; settings: DRB1 *0701
# HLA-DR DRB1*0802 (DR8) = HLA-DR DRB1*0802 (DR8) (Homo sapiens, UniProt P01903+P01911, A100R/A103L/A169T/F76Y/H45Y/I96F/K41T/L162R/M171V/P40S/Q125H/Q178H/Q39Y/Q99D/R218S/R42G/S66Y/V115G/W38E); assay: biochemical; format: binding
# HLA-DR DRB3*0101 (DR52) = HLA-DR DRB3*0101 (DR52) (Homo sapiens, UniProt P01903+P79483); assay: biochemical; format: binding
# HLA-DR DRB1*0101 (DR1) = HLA-DR DRB1*0101 (DR1) (Homo sapiens, UniProt P01903+P01911, A100R/D57E/F55L/F60I/F76Y/I96L/L162R/M171V/P40L/Q125E/R42F/V115G/Y59C); assay: biochemical; format: binding; settings: DRB1 *0101
# HLA-DR DRB4*0101 (DR53) = HLA-DR DRB4*0101 (DR53) (Homo sapiens, UniProt P01903+P13762, G164S); assay: biochemical; format: binding; settings: DRB4 *0101
# HLA-DR DRB1*0405 (DR4) = HLA-DR DRB1*0405 (DR4) (Homo sapiens, UniProt P01903+P01911, A100R/A169T/D86S/F76Y/I96L/K127E/L162R/M171V/N62H/P40V/Q125Y/R42H/S133A/S149N/S66Y/V115G/V209L/W38E); assay: biochemical; format: binding; settings: DRB1 *0405
# HLA-DR DRB1*1501 (DR15) = HLA-DR DRB1*1501 (DR15) (Homo sapiens, UniProt P01903+P01911); assay: biochemical; format: binding; settings: DRBI *1501
# HLA-DR DRB1*0301 (DR3) = HLA-DR DRB1*0301 (DR3) (Homo sapiens, UniProt P01903+P01911, A100K/A102G/A103R/A169T/F55Y/I96L/K41T/L162R/M171V/P40S/Q125H/Q178H/Q39Y/R42S/S66N/T106N/T262R/W38E/Y61H); assay: biochemical; format: binding
# HLA-DR DRB1*0401 (DR4) = HLA-DR DRB1*0401 (DR4) (Homo sapiens, UniProt P01903+P01911, A100K/A169T/F76Y/I96L/K127E/L162R/M171V/N62H/P40V/Q125Y/R42H/S133A/S149N/S66Y/V115G/V209L/W38E); assay: biochemical; format: binding; settings: DRB1 *0401
# HLA-DR DRB1*1101 (DR11) = HLA-DR DRB1*1101 (DR11) (Homo sapiens, UniProt P01903+P01911, A100R/A169T/A87E/I96F/K41T/L162R/M171V/P40S/Q125H/Q178H/Q39Y/Q99D/R42S/S66Y/T262R/V115G/W38E); assay: biochemical; format: binding; settings: DRB1 *1101
# [1] = Binding affinity to A*2902 (expressed as an IC50)
# [2] = Binding affinity to A*3002 (expressed as an IC50)
# HLA-DR DRB1*1302 (DR13), sequence (P01903 26-254 limits assumed, other chains not shown): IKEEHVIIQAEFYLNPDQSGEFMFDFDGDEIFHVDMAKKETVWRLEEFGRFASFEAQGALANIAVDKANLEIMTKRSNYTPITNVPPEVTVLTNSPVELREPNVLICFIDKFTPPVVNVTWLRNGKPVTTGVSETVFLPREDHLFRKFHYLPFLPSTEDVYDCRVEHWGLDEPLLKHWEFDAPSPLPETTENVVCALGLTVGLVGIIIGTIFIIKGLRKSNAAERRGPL
# HLA-DR DRB1*1101 (DR11), sequence (P01903 26-254 limits assumed, other chains not shown): as above
# HLA-DR DRB1*0301 (DR3), sequence (P01903 26-254 limits assumed, other chains not shown): as above
Compound,IC50 (HLA-A*2902; [1]),IC50 (HLA-DR DRB1*1302 (DR13)),IC50 (HLA-DR DRB1*0901 (DR9)),IC50 (HLA-DR DRB5*0101 (DR51)),IC50 (HLA-DR DRB1*0701 (DR7)),IC50 (HLA-DR DRB1*0802 (DR8)),IC50 (HLA-DR DRB3*0101 (DR52)),IC50 (HLA-DR DRB1*0101 (DR1)),IC50 (HLA-DR DRB4*0101 (DR53)),IC50 (HLA-DR DRB1*0405 (DR4)),IC50 (HLA-DR DRB1*1501 (DR15)),IC50 (HLA-DR DRB1*0301 (DR3)),IC50 (HLA-DR DRB1*0401 (DR4)),IC50 (HLA-DR DRB1*1101 (DR11)),other results
YYNNFNNNY,0.019 µM,,,,,,,,,,,,,,IC50 (HLA-A*3002; [2]): 0.034 µM
LSEYYDXD1Y,,,,,,,,,,,,,,,IC50 (HLA-A*3002; read-out: Binding affinity to A*3002 (expressed as an IC50)): 0.489 µM
CC(C)C[C@H](NC(=O)[C@H](C)NC(=O)[C@H](CO)NC(=O)[C@H](C)NC(=O)[C@@H](NC(=O)[C@H](CC(=O)O)NC(=O)[C@H](CC(C)C)NC(=O)[C@H](CC(C)C)NC(=O)[C@@H](N)CC(=O)O)[C@@H](C)O)C(=O)N[C@@H](Cc1ccc(O)cc1)C(=O)O,0.074 µM,,,,,,,,,,,,,,
CC(C)C[C@H](NC(=O)[C@H](CO)NC(=O)[C@@H](N)CC(C)C)C(=O)N[C@@H](CC(=O)O)C(=O)N[C@H](C(=O)N[C@@H](CO)C(=O)N[C@@H](C)C(=O)N[C@@H](C)C(=O)N[C@@H](Cc1ccccc1)C(=O)N[C@@H](Cc1ccc(O)cc1)C(=O)O)C(C)C,0.012 µM,,,,,,,,,,,,,,
FVSSIFISFY,0.022 µM,,,,,,,,,,,,,,IC50 (HLA-A*3002; [2]): 0.084 µM
KEDSHTAWTIVRVEI,,3.05 µM,6.08 µM,0.575 µM,0.035 µM,> 79 µM,56.2 µM,1.91 µM,0.018 µM,0.302 µM,1.99 µM,44.8 µM,0.746 µM,7.44 µM,
ALLKNYGLLYTFRKD,,0.00089 µM,2.63 µM,0.029 µM,5.92 µM,3.62 µM,0.05 µM,0.019 µM,1.34 µM,0.303 µM,0.0065 µM,5.98 µM,0.16 µM,1.74 µM,
VCGERGFFYTPKTRR,,34.7 µM,14.4 µM,0.092 µM,5.49 µM,0.419 µM,17.4 µM,9.62 µM,> 31 µM,> 15.1 µM,> 25.6 µM,1.99 µM,> 20.5 µM,3.82 µM,
KYQAVTTTL,,,,,,,,,,,,,,,IC50 (HLA-A*2902; A*2902 binding affinity (IC50)): > 156 µM
ITEYRHYNY,,,,,,,,,,,,,,,IC50 (HLA-A*3002): 0.418 µM
ELEASISGKY,21.9 µM,,,,,,,,,,,,,,
LTDVSIACVY,,,,,,,,,,,,,,,IC50 (HLA-A*2902): 0.764 µM; IC50 (HLA-A*3002): 0.072 µM
TYGWCFKL,,,,,,,,,,,,,,,IC50 (HLA-A*2902): 25.7 µM; IC50 (HLA-A*3002): > 8.04 µM
YLVCGERGFLYTPKT,,2.12 µM,0.124 µM,0.971 µM,12.8 µM,> 54.4 µM,> 95.2 µM,0.155 µM,33.1 µM,> 30.1 µM,> 25.6 µM,2.03 µM,> 20.5 µM,> 1110 µM,
AYGPGPGKI,,,,,,,,,,,,,,,IC50 (HLA-A*2902; A*2902 binding affinity (IC50)): > 156 µM; IC50 (HLA-A*3002; A*3002 binding affinity (IC50)): 5.43 µM
CC(C)C[C@H](NC(=O)[C@H](Cc1c[nH]cn1)NC(=O)[C@H](CC(C)C)NC(=O)[C@H](CCCCN)NC(=O)[C@H](CCCNC(=N)N)NC(=O)CNC(=O)[C@H](Cc1ccc(O)cc1)NC(=O)[C@@H](NC(=O)[C@@H](N)CCCCN)[C@@H](C)O)C(=O)N[C@@H](Cc1ccc(O)cc1)C(=O)O,0.027 µM,,,,,,,,,,,,,,IC50 (HLA-A*3002; [2]): 0.0015 µM
CYSLYGTTF,,,,,,,,,,,,,,,IC50 (HLA-A*3002): 7.82 µM
QAAESNERY,24.3 µM,,,,,,,,,,,,,,IC50 (HLA-A*3002; [2]): 3.01 µM
PVDPNLEPY,,,,,,,,,,,,,,,IC50 (HLA-A*3002): 7.12 µM
LFVVYRDSF,,,,,,,,,,,,,,,IC50 (HLA-A*2902): 0.919 µM; IC50 (HLA-A*3002): 0.018 µM
YLVCGERGFFYTPKT,,9.27 µM,1.52 µM,95.2 µM,64.6 µM,> 54.4 µM,92.8 µM,11.1 µM,34.5 µM,0.73 µM,10.7 µM,37.2 µM,1.44 µM,> 10.5 µM,
KTYGGPGPGY,0.228 µM,,,,,,,,,,,,,,IC50 (HLA-A*3002; [2]): 0.0017 µM
SSFFMNRFY,0.036 µM,,,,,,,,,,,,,,IC50 (HLA-A*3002; [2]): 0.0075 µM
VTGERGFFYTPKTRR,,25.4 µM,> 300 µM,0.54 µM,27.8 µM,9.41 µM,244 µM,18.9 µM,> 29.8 µM,13.4 µM,2.82 µM,3.02 µM,7.23 µM,10.1 µM,
KLQTYPRTNTGSGTP,,0.987 µM,> 29.2 µM,> 14 µM,> 99.2 µM,> 51.6 µM,> 263 µM,> 10.1 µM,> 105 µM,> 9.81 µM,0.52 µM,> 205 µM,> 26.5 µM,8.21 µM,
QLAFDTYQEFEQNPQ,,19.7 µM,> 59.5 µM,> 9.51 µM,21.1 µM,> 33.3 µM,0.738 µM,> 18 µM,> 32.8 µM,4.84 µM,> 86.7 µM,7.85 µM,28.6 µM,> 15.4 µM,
